The target of data set [1] is T1, FXa (Homo sapiens, UniProt P00742). Nature of the data set: Determination of the inhibitory constant for FXa (kinetics, Lineweaver-Burk). In kind it is biochemical. The procedure: Figure 3 Kinetic activity of ACH-11 to FXa in vitro. Lineweaver-Burk plot (inset) for ACH-11 kinetics in PBS at pH 8.34 and 37 °C with mixed inhibition in the presence of different concentrations of ACH-11: 0 μM (slope of 0.376), 5 μM (slope of 0.528) and 10 μM (slope of 0.698). The plots represent the mean of 3 independent measurements.
T1 sequence (P00742 235-488 limits assumed): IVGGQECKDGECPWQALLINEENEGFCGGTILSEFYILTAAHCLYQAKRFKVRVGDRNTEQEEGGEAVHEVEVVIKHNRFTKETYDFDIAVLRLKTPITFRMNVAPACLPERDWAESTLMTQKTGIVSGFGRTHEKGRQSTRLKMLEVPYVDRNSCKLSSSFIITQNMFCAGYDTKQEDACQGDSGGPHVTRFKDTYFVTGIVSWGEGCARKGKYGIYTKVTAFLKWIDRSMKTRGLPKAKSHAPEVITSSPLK
T1 sequence (P00742 41-179 partner limits assumed): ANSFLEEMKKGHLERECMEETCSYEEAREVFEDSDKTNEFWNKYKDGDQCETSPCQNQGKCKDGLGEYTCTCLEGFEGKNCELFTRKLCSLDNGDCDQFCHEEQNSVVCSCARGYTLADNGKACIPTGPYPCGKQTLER
Enzyme kinetic activity was assayed as described earlier, with minor modifications. All enzymatic reactions were carried out in PBS at pH 8.34 and at 37 °C. Freshly prepared FXa at a constant concentration of 1 nM was used in each reaction. ACH-11 was dissolved in 5% DMSO. Activities were measured for 4 different fixed concentrations of substrate (73.5, 147, 294 and 588 μM) in different concentrations of ACH-11 (0, 5 and 10 μM). The rates of the enzymatic reactions were monitored at 405 nm for 20 min using the Powerwave XS (Biotek, USA).

For data set [2], the system named is ADP-induced rabbit platelet aggregation. In words: In vitro platelet aggregation assay, ADP-induced. In kind it is cell-based. The note with it: ADP 10 μM, rabbit PRP, turbidimetric, preincubated 5 min; 95% CI 185.36–225.02 μM. As for the experimental part:
(§1) Figure 5 ACH-11 inhibited ADP- and U46619-induced rabbit platelet aggregation in vitro. PRP was preincubated for 5 min with different concentrations of ACH-11 (0.1, 0.25, 0.5 and 1 mg/mL) or the vehicle. Platelet aggregation was initiated with ADP (10 μM), U46619 (6 μM), thrombin (3 U/mL) or collagen (2.5 μg/mL). Data are the mean ± SD (n = 3), ^****P < 0.0001 and ^*P < 0.05 versus vehicle, analyzed by one-way ANOVA, followed by the Tukey multiple comparison test.
(§2) Institute of Cancer Research (ICR) mice (18–22 g), Sprague-Dawley rats (180–250 g) and New Zealand white rabbits (2–2.5 kg) were purchased from Nanjing Qinglongshan Animal Center (Jiangsu province, China). They were housed in a temperature-controlled room at 25 ± 2 °C and 50 ± 5% relative humidity with a l2 h dark/light cycle. They were given free access to food and water ad libitum. The animals were acclimatized for at least 1 week prior to use. […]
(§3) In vitro platelet aggregation assays were performed according to the turbidimetric method, as described previously. […] The extent of platelet aggregation inhibition by ACH-11 was calculated by the following formula (2): [drawing 2] where X represents the maximum aggregation rate of 5% DMSO-treated PRP and Y represents the maximum aggregation rate of sample-treated PRP. […]

Data set [3] deals with U46619-induced rabbit platelet aggregation. Nature of the data set: In vitro platelet aggregation assay, U46619-induced. In kind it is cell-based. The note with it: U46619 6 μM, rabbit PRP, turbidimetric, preincubated 5 min; 95% CI 415.62–525.95 μM. The procedure:
as §1, §2, §3

Data set [4] has as its system bleeding time in mice. In words: Bleeding time (tail cutting method). It is filed as in vivo. The settings on record: n = 10; for bleeding time: tail in saline 37 °C, 20-min recording, mean ± SD. The procedure:
Fifteen minutes after the administration of ACH-11 (1, 3 and 9 mg/kg), aspirin (9 mg/kg for 30 min) and the vehicle, a 3 mm-long tail tip was cut from the mice, and the remaining tail was immersed immediately into saline at 37 °C. The accumulated bleeding time (including periods of re-bleeding) was recorded over a 20-min period. Data are presented as the mean ± SD (n = 10). ^****P < 0.0001, ^**P < 0.01 versus vehicle, analyzed by one-way ANOVA, followed by the Tukey multiple comparison test.
(§4) Institute of Cancer Research (ICR) mice (18–22 g), Sprague-Dawley rats (180–250 g) and New Zealand white rabbits (2–2.5 kg) were purchased from Nanjing Qinglongshan Animal Center (Jiangsu province, China). They were housed in a temperature-controlled room at 25 ± 2 °C and 50 ± 5% relative humidity with a l2 h dark/light cycle. They were given free access to food and water ad libitum. The animals were acclimatized for at least 1 week prior to use. All experiments were carried out in accordance with the guidelines and the regulations of the Ethical Committee of the China Pharmaceutical University. The protocols were approved by the Institutional Animal Care and Use Committee of the China Pharmaceutical University.
Bleeding time of the mice was measured by a tail cutting method as described previously. Mice were randomly divided into five groups (both sexes, 10 per group), including a vehicle group, a reference drug group (9 mg/kg of aspirin-treated) and three sample groups (1, 3 and 9 mg/kg of ACH-11-treated).

Data set [5] deals with ADP-induced acute pulmonary thrombosis in mice. In words: ADP-induced acute pulmonary thrombosis in mice. It is filed as in vivo, ICR mice. The note with it: aspirin 20 mg/kg, ADP 300 mg/kg i.v. As for the experimental part: To examine whether ACH-11 exerted antithrombotic effects in vivo, the peptide was challenged in an acute pulmonary thrombosis model in mice. Aspirin, which is a clinical anti-thrombosis medicine that acts as a selective COX-1 inhibitor, was used as a positive control. In this model, small thrombi formed by intravenous injection of ADP (300 mg/kg) occluded pulmonary vessels, resulting in paralysis or death of the mice.
as §4
ADP-induced acute pulmonary thrombosis in mice was performed as described previously. Sixty ICR mice (18–22 g) were fasted overnight and randomly divided into 6 groups, with 10 mice per group (males and females in half). […]

Data set [6] concerns arterio-venous shunt thrombosis in rats. In words: In vivo arterio-venous shunt thrombosis in rats. The settings on record: aspirin 20 mg/kg, rat; mean ± SEM, n = 6. On the set-up: species or system Sprague-Dawley rats. As for the experimental part: Figure 6 ACH-11 inhibited arterio-venous shunt thrombosis in rats in vivo. After the administration of ACH-11 (0.33, 1 and 3 mg/kg), aspirin and the vehicle, rats were anesthetized by intraperitoneal injection of chloral hydrate (350 mg/kg), and an arterio-venous shunt tube (12 cm, containing 10-cm long of 4 braided silk thread) was installed between the right carotid artery and left jugular vein of each rat. After 20 min, the silk thread was removed from the shunt tube, and its wet weight was immediately measured. The dry weight of the thread was measured 6 h later at room temperature. The wet and dry weights of the formed thrombi were determined by subtracting the pre-experiment weights of the wet and dry 6-cm threads, respectively. Data are the mean ± SD, ^*P < 0.05, ^***P < 0.001 and ^****P < 0.0001 versus vehicle, n = 6, analyzed by one-way ANOVA, followed by the Tukey multiple comparison test. […]
Antithrombotic activity of ACH-11 in vivo was determined in a rat arterio-venous shunt thrombosis model as described previously[39] with a minor modification. […] Its wet weight was measured immediately. The dry weight of thread was measured 6 h later at room temperature. The wet and dry weights of the thrombi were determined by subtracting the pre-experimental weights of the wet and dry 6-cm threads, respectively.

Data set [7] has as its target T1, FXa. In words: Inhibition of amidolytic activity of FXa (chromogenic substrate S-2222). In kind it is biochemical. The settings on record: sample dissolved at 5 mg/mL, PBS pH 8.34, 37 °C, n = 3, compared with the other fractions/hydrolysates. As for the experimental part: Figure 1 Selection of enzymatic hydrolysis conditions and bioassay-directed chromatographic separation of the FXa inhibitory peptide. (a) FXa inhibitory activities of Agkistrodon acutus venom hydrolysates obtained by treatment with pepsin, papain, neutrase and alcalase at 1, 2, 3, 4, 8, 12 h intervals. (b) Agkistrodon acutus venom hydrolysate produced by neutrase (3 h) was separated on a gel filtration column packed with Sephadex G-50 (2.6 × 100 cm). The hydrolysate was eluted by distilled water at a flow rate of 0.6 mL/min, collecting fractions of 3.6 mL. (c) The FXa inhibitory activities of fractions A-E. (d) Fraction C was separated on a Hedera ODS-2 column (20 × 250 mm). (e) The FXa inhibitory activities of fractions C1-C8. […]
The lyophilized neutrase hydrolysate (0.2 g) was dissolved in 10 mL of distilled water and applied to a Sephadex G-50 column (2.6 × 100 cm) equilibrated with distilled water and eluted with the same buffer at a flow rate of 0.6 mL/min. The eluents were monitored at 280 nm and were collected at 6 min intervals. […] The UV absorbance was monitored at 214 nm.
Inhibition of the amidolytic activity of FXa was analyzed by a method described previously, with minor modifications. Enzymatic activity was measured in PBS at pH 8.34 using the chromogenic substrate method. […] The absorbance-time curve and the slope of the curve (Vi) were used to represent the activity of the enzyme. […]

A word on the Ki: it is the dissociation constant of the complex between target and ligand, obtained from inhibition or displacement. A word on the IC50: it is the concentration needed to halve the response being measured. A high value points to lower potency.

Marks after values point to notes of the source that are not given here. Where a SMILES comes first, the peptide text is derived from it.

On to `CC[C@H](C)[C@H](NC(=O)[C@H](CCCNC(=N)N)NC(=O)[C@@H]1CCCN1C(=O)[C@H](Cc1ccccc1)NC(=O)[C@@H](NC(=O)[C@@H](N)CC(C)C)[C@@H](C)O)C(=O)N[C@H](C(=O)N[C@@H](Cc1ccccc1)C(=O)N[C@H](C(=O)N[C@@H](CC(C)C)C(=O)NCC(=O)O)C(C)C)C(C)C` [ACH-11, LTFPRIVFVLG] (H-LTFPRIVFVLG-OH), for which the inhibition constant (Ki) in data set [1] (PBS pH 8.34, 37 °C, FXa 1 nM, S-2222 73.5-588 μM, ACH-11 0, 5, 10 μM, 5% DMSO, mixed inhibition, mean of 3 independent measurements, read-out: Ki value for FXa inhibition towards S-2222) is 9.02 µM. Also, in data set [1] (in the presence of ACH-11, PBS pH 8.34, 37 °C), the “change in Vmax and Km of FXa towards S-2222” value is “A decrease in the Vmax value with a subsequent increase in the Km value”. Further, the IC50 was found to be 204 µM in data set [2] and 468 µM in data set [3]. Also, the bleeding time in data set [4] (ACH-11 1 mg/kg, 15 min after administration) came out at 10.71 ± 2.98 min; in data set [4] (ACH-11 3 mg/kg, 15 min after administration), 11.73 ± 2.68 min; in data set [4] (ACH-11 9 mg/kg, 15 min after administration), 14.01 ± 1.88 min. Further, in data set [4] (ACH-11 3 and 1 mg/kg, compared with vehicle), the “bleeding time (effect in words)” value was “did not significantly prolong the bleeding time”.
`CC(=O)Oc1ccccc1C(=O)O` [Aspirin, aspirin]: the Numbers of lethal/total in data set [5] (vehicle 9/10, P = 0.0055 versus vehicle) was 2/10. Further, the Protection rate in data set [5] (vehicle 10%, P = 0.0055 versus vehicle, n = 10) is listed as 80^** %. The “reduction of thrombus weight” value in data set [6] turned out to be 59.10 ± 2.98%. The bleeding time in data set [4] (aspirin 9 mg/kg, 30 min after administration) was 17.03 ± 2.86 min.
On to “LTFPRIVFVLG [fraction C4, RP-HPLC fraction of fraction C, purity greater than 96%; peptide … (natural ACH-11)]”, for which the “FXa inhibitory activity (in words)” value in data set [7] was “displayed the highest FXa inhibitory activity”.

Values taken from publication PMC4451689, “A Novel Direct Factor Xa Inhibitory Peptide with Anti-Platelet Aggregation Activity from Agkistrodon acutus Venom Hydrolysates” (Scientific Reports, 2015).
